Measurements: patent publication US20160046618A1, “Cyclopropyl Fused Thiazin-2-Amine Compounds as Beta-Secretase Inhibitors and Methods of Use” (AMGEN INC., priority 2014, published 2016)
Read-outs that look alike come from different tables or passages of the source.

Key:
Aβ 40 in rat CSF = assay: In vivo inhibition of beta-secretase: Aβ40 reduction in rat CSF; settings: 10 mpk, after 4 h
In short: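 Male Sprague Dawley rats (200 g) dosed orally in 2% HPMC, 1% Tween80, pH 2.2, at 3, 10 or 30 mg/kg; CSF and brain taken 4 h later. Brain homogenate centrifuged at 355,000 g; Aβ40 measured by ECL sandwich ELISA (4G8 capture, Abeta40 C-terminal Fab detection), as % reduction versus vehicle controls.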

human recombinant BACE1 = human recombinant BACE1 (Homo sapiens (Human), UniProt P56817); assay: In vitro enzymatic BACE1 FRET assay; assay type: biochemical; settings: read-out: IC50 IP (μM) BACE1 enzyme
Chain of human recombinant BACE1 (P56817 46-501): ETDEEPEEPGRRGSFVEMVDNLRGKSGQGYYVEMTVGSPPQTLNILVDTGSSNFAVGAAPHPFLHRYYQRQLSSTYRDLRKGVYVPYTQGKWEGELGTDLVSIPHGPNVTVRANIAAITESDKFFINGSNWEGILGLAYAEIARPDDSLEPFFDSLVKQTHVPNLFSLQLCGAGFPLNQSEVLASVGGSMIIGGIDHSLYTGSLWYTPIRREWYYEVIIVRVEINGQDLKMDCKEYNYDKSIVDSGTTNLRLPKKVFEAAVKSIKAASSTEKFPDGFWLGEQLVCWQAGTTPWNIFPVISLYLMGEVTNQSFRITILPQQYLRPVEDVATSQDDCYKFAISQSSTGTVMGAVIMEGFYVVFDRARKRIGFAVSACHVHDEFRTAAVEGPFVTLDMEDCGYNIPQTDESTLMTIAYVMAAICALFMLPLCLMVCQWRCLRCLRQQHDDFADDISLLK
In short: (§1)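 Protease purified by Ni-NTA chromatography; start with FRET substrate (50 nM); incubate 1 h; quench with Tris to neutral pH; read fluorescence ex 488 / em 590 nm.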

human recombinant BACE2 = human recombinant BACE2 (Homo sapiens (Human), UniProt Q9Y5Z0); assay: In vitro enzymatic BACE2 FRET assay; assay type: biochemical; settings: read-out: IC50 IP (μM) BACE2 enzyme
Chain of human recombinant BACE2 (Q9Y5Z0 63-518): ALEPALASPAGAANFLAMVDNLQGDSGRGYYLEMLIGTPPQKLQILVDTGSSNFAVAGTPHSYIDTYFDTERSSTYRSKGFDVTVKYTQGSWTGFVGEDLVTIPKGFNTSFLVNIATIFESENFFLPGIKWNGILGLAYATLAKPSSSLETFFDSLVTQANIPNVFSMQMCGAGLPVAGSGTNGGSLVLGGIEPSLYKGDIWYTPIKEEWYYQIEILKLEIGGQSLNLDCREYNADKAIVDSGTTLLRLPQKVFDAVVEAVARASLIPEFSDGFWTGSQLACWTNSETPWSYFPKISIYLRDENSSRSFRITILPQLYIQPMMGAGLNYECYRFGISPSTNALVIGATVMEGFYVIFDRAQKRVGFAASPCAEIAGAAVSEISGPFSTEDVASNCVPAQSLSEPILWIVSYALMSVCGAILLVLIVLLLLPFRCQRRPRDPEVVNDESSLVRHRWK
In short: as §1

[1] = test system: Aβ40 in conditioned medium of cells stably expressing Amyloid Precursor Protein (APP); assay: In vitro BACE-1 cell-based assay (Aβ40 sandwich ELISA); settings: read-out: IC50 IP (μM) BACE1 cell
In short: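 APP-expressing cells treated 24 h at 37 °C with compound in 10-point dose response (top 100 μM or 10 μM, 0.1% DMSO final). Secreted Aβ40 in conditioned medium quantified by sandwich ELISA (pAb40 capture, biotinylated 6E10 detection, time-resolved europium fluorescence); IC50 from percent inhibition versus concentration.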

Recombinant Cat D = Recombinant Cat D (Homo sapiens (Human), UniProt P07339); assay: In vitro enzymatic Cathepsin D (Cat D) FRET assay; assay type: biochemical; settings: read-out: IC50 IP (μM) CatD
Chain of Recombinant Cat D (P07339 65-412): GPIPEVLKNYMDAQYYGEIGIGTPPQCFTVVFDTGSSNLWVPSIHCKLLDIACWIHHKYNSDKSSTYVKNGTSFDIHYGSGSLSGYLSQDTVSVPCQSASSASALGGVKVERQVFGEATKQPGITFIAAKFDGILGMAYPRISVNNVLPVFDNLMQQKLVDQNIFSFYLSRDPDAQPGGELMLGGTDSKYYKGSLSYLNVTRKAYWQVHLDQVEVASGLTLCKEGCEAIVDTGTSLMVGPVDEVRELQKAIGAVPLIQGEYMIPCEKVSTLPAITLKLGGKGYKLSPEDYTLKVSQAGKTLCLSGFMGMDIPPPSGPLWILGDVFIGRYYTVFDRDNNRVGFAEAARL
In short: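 CHO-expressed enzyme; buffer 0.05 M citrate pH 3.5, 5 mM CHAPS, 10% DMSO final. Start with FRET substrate 20 nM, 1 h incubation, Tris stop (pH to neutral), fluorescence ex 500 nm/em 580 nm.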

Aβ 40 in rat brain = assay: In vivo inhibition of beta-secretase: Aβ40 reduction in rat brain; settings: 10 mpk, after 4 h
In short: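 Rats were dosed by oral gavage at up to 100 mg/kg in 2% HPMC, 1% Tween80, pH 2.2, with vehicle-only controls. Supernatant Aβ40 was measured by ECL sandwich ELISA with biotinylated-4G8 capture and C-terminal Fab40 detection.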

[2] = healthy volunteers; cited from earlier work
Aβ in lumbar CSF = settings: oral dosing of 30 or 90 mg; cited from earlier work
[3] = test system: pigment epithelium of the rat's eye; settings: higher compound dose given for three months; cited from earlier work
[4] = cited from earlier work
[5] = phase 1, healthy individuals; cited from earlier work
CSF Aβ40 = settings: healthy individuals, 36 h post-dose, cited from earlier work

C#CCOc1cnc2c(Nc3cc(F)c(F)c([C@@]4(C)N=C(N)S[C@@]5(C(F)F)C[C@@H]45)c3)ncnc2c1 [Example 945, N-(3-((1S,5S,6S)-3-amino-1-(difluoromethyl)-5-methyl-2-thia-4-azabicyclo[4.1.0]hept-3-en-5-yl)-4,5-difluorophenyl)-7-(2-propyn-1-yloxy)pyrido[3,2-d]pyrimidin-4-amine]
% Aβ 40 reduction in rat CSF at 10 mpk (Aβ 40 in rat CSF): 68% | IC50 (human recombinant BACE1): 0.00105 µM | IC50 (human recombinant BACE2): 0.0661 µM | IC50 [1]: 0.00709 µM | IC50 (Recombinant Cat D): 381 µM | % Aβ 40 reduction in rat brain at 10 mpk (Aβ 40 in rat brain): 55%

C#C[C@H](C)Oc1cnc(C(=O)Nc2ccc(F)c([C@@]3(C)N=C(N)S[C@@]4(COC)C[C@H]43)c2)cn1 [Example 965, N-(3-((1S,5S,6S)-3-amino-1-(methoxymethyl)-5-methyl-2-thia-4-azabicyclo[4.1.0]hept-3-en-5-yl)-4-fluorophenyl)-5-(((1S)-1-methyl-2-propyn-1-yl)oxy)-2-pyrazinecarboxamide]
% Aβ 40 reduction in rat CSF at 10 mpk (Aβ 40 in rat CSF): 33% | IC50 (human recombinant BACE1): 0.000618 µM | IC50 (human recombinant BACE2): 0.0638 µM | IC50 [1]: 0.00287 µM | IC50 (Recombinant Cat D): > 400 µM | % Aβ 40 reduction in rat brain at 10 mpk (Aβ 40 in rat brain): 20%

C#C[C@H](C)Oc1cnc(C(=O)Nc2ccc(F)c([C@@]3(C)N=C(N)S[C@@]4(C(F)F)C[C@@H]34)c2)cn1 [Example 966, N-(3-((1S,5S,6S)-3-amino-1-(difluoromethyl)-5-methyl-2-thia-4-azabicyclo[4.1.0]hept-3-en-5-yl)-4-fluorophenyl)-5-(((1S)-1-methyl-2-propyn-1-yl)oxy)-2-pyrazinecarboxamide]
% Aβ 40 reduction in rat CSF at 10 mpk (Aβ 40 in rat CSF): 67% | IC50 (human recombinant BACE1): 0.000385 µM | IC50 (human recombinant BACE2): 0.0419 µM | IC50 [1]: 0.00182 µM | IC50 (Recombinant Cat D): 735 µM | % Aβ 40 reduction in rat brain at 10 mpk (Aβ 40 in rat brain): 68%

CC(C)NC(=O)[C@]12C[C@H]1[C@@](C)(c1cc(NC(=O)c3cnc(OCC(F)(F)F)cn3)ccc1F)N=C(N)S2 [Example 976, (1S,5S,6S)-3-amino-5-(2-fluoro-5-(5-(2,2,2-trifluoroethoxy)pyrazine-2-carboxamido)phenyl)-N-isopropyl-5-methyl-2-thia-4-azabicyclo[4.1.0]hept-3-ene-1-carboxamide]
% Aβ 40 reduction in rat CSF at 10 mpk (Aβ 40 in rat CSF): 36% | IC50 (human recombinant BACE1): 0.000527 µM | IC50 (human recombinant BACE2): 0.268 µM | IC50 [1]: 0.0101 µM | IC50 (Recombinant Cat D): 260 µM | % Aβ 40 reduction in rat brain at 10 mpk (Aβ 40 in rat brain): 16%

COC[C@]12C[C@H]1[C@@](C)(c1cc(NC(=O)c3cnc(OCC4CC4)cn3)cc(F)c1F)N=C(N)S2 [Example 1021, N-(3-((1S,5S,6S)-3-amino-1-(methoxymethyl)-5-methyl-2-thia-4-azabicyclo[4.1.0]hept-3-en-5-yl)-4,5-difluorophenyl)-5-(cyclopropylmethoxy)-2-pyrazinecarboxamide]
% Aβ 40 reduction in rat CSF at 10 mpk (Aβ 40 in rat CSF): 44% | IC50 (human recombinant BACE1): 0.000918 µM | IC50 (human recombinant BACE2): 0.0808 µM | IC50 [1]: 0.0116 µM | IC50 (Recombinant Cat D): 776 µM | % Aβ 40 reduction in rat brain at 10 mpk (Aβ 40 in rat brain): 25%

Cc1noc(COc2cnc(C(=O)Nc3ccc(F)c([C@@]4(C)N=C(N)S[C@@]5(C(F)F)C[C@@H]45)c3)cn2)n1 [Example 1039, N-(3-((1S,5S,6S)-3-amino-1-(difluoromethyl)-5-methyl-2-thia-4-azabicyclo[4.1.0]hept-3-en-5-yl)-4-fluorophenyl)-5-((3-methyl-1,2,4-oxadiazol-5-yl)metnoxy)-2-pyrazinecarboxamide]
% Aβ 40 reduction in rat CSF at 10 mpk (Aβ 40 in rat CSF): 13% | IC50 (human recombinant BACE1): 0.000941 µM | IC50 (human recombinant BACE2): 0.171 µM | IC50 [1]: 0.00251 µM | IC50 (Recombinant Cat D): 725 µM | % Aβ 40 reduction in rat brain at 10 mpk (Aβ 40 in rat brain): 16%

C[C@@]1(c2cc(-c3cncnc3)c(F)cc2F)CCSC(N)=N1 [LY2811376, (S)-4-(2,4-difluoro-5-pyrimidin-5-yl-phenyl)-4-methyl-5,6-dihydro-4H-[1,3]thiazin-2-ylamine]
safety and tolerability [2]: safe and well tolerated | Aβ reductions in lumbar CSF (Aβ in lumbar CSF): Prominent and long-lasting Aβ reductions

C[C@@]1(c2cc(-c3cncnc3)c(F)cc2F)CCSC(N)=N1 [LY 2811376]
retinal toxicity finding in rat toxicology studies [3]: damaged the pigment epithelium of the rat's eye | eye assessments of people from the Ph I dosing trial [4]: did not show any abnormalities

CN1C(=N)N[C@](C)(c2cc(NC(=O)c3ccc(F)cn3)ccc2F)CS1(=O)=O [MK-8931]
tolerability [5]: generally well tolerated | reduction of CSF Aβ40 concentrations (CSF Aβ40; single dose of 100 mg): 75% | reduction of CSF Aβ40 concentrations (CSF Aβ40; single dose of 550 mg): 92%
